In patent US20260028335A1, “NOVEL ISOTHIAZOL-3-YL AND ISOXAZOL-3-YL SULFONAMIDE COMPOUNDS” (Hoffmann-La Roche Inc., priority 2022, published 2026):

Target: human GPR17 short isoform (Homo sapiens, UniProt Q13304)
Experiment: GPR17 cAMP assay (hGPR17 cAMP, antagonist mode, TR-FRET)
Assay type: cell-based
Conditions: CHO-K1 cells stably expressing human GPR17 short isoform; EC80 of agonist MDL29,951; forskolin 15 μM; IBMX 0.5 mM
Experimental: GPR17 cAMP Assay Protocol:
CHO-K1 cells stably expressing vector containing untagged human GPR17 short isoform (Roche) were cultured at 37° C./5% CO2 in DMEM (Dulbecco's Modified Eagle Medium):F-12 (1:1) supplemented with 10% foetal bovine serum and 400 μg/ml Geneticin.
Changes in intracellular cyclic adenosine monophosphate (cAMP) levels were quantified using the Nano-TRF Detection Assay kit (Roche Diagnostics, Cat. No. 05214386001). This assay allows for direct cAMP quantification in a homogeneous solution. cAMP is detected based on time-resolved fluorescence energy transfer (TR-FRET) and competitive binding of ruthenylated cAMP and endogenous cAMP to an anti-cAMP monoclonal antibody labeled with AlexaFluor-700. The Ruthenium complex serves as the FRET donor and transfers energy to AlexaFluor-700. The FRET signal is inversely proportional to the cAMP concentration.
CHO-GPR17S cells were detached with Accutase and resuspended in assay buffer consisting of Hank's Balanced Salt Solution (HBSS), 10 mM HEPES (4-(2-hydroxyethyl) piperazine-1-ethanesulfonic acid solution) and 0.1% bovine serum albumin (pH 7.4). The cells were seeded in black 384-well plates (Corning) at a density of 10,000 cells/20 μl assay buffer until the addition of compounds.
Test antagonist compounds were serially diluted in dimethyl sulfoxide (DMSO) and spotted in 384-well plates. The compounds were then diluted in HBSS buffer supplemented with an EC80 concentration of MDL29,951 (3-(2-Carboxy-4,6-dichloroindol-3-yl)propionic acid) (GPR17 agonist) plus 3-Isobutyl-1-methylxanthine (IBMX) (0.5 mM final concentration) and added to the cells at room temperature. Forskolin (15 μM final concentration) was added 5 minutes after the test compounds and the cells were incubated at room temperature for 30 minutes. The assay was stopped by adding cAMP detection mix (containing detergents for cell lysis) for 90 minutes at room temperature.
Cellular cAMP was measured using a Paradigm reader (Molecular Devices). The raw data was used to calculate the FRET signal based on the assay's P-factor as per cAMP kit instructions. The data was normalized to the maximal activity of a reference antagonist and dose response curves were fitted to the percent activity of the test compounds using a sigmoidal dose response model (Genedata Screener).
Results in the hGPR17 cAMP assay are provided for compounds of formula I in Table 1

Sequence of human GPR17 short isoform (Q13304 29-367): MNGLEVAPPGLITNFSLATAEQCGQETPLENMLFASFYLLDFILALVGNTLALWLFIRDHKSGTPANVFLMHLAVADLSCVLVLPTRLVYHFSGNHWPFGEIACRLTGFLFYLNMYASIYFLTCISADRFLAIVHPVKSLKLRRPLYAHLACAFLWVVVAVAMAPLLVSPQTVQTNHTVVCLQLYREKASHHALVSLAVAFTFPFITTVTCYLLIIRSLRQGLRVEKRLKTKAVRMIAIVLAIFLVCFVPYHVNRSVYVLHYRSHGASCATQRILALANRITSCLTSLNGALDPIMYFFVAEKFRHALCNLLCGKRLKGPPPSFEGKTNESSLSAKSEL

| Compound | IC50 [nM] |
| --- | --- |
| O=S(=O)(Nc1nsc(C2CC2)c1Cl)c1c[nH]c2cc(Cl)ccc12 [Example 2, 6-chloro-N-(4-chloro-5-cyclopropyl-isothiazol-3-yl)-1H-indole-3-sulfonamide] | 51 |
| O=S(=O)(Nc1nsc(C2CC2)c1Cl)c1c[nH]c2nc(Br)ccc12 [Example 4, 6-bromo-N-(4-chloro-5-cyclopropyl-isothiazol-3-yl)-1H-pyrrolo[2,3-b]pyridine-3-sulfonamide] | 103 |
| CCc1onc(NS(=O)(=O)c2c[nH]c3cc(Cl)ccc23)c1C [Example 7, 6-chloro-N-(5-ethyl-4-methyl-isoxazol-3-yl)-1H-indole-3-sulfonamide] | 452 |
| CCc1snc(NS(=O)(=O)c2c[nH]c3cc(Cl)ccc23)c1Cl [Example 8, 6-chloro-N-(4-chloro-5-ethyl-isothiazol-3-yl)-1H-indole-3-sulfonamide] | 105 |
| CCc1c(NS(=O)(=O)c2c[nH]c3cc(Cl)ccc23)nsc1C [Example 9, 6-chloro-N-(4-ethyl-5-methyl-isothiazol-3-yl)-1H-indole-3-sulfonamide] | 659 |
| CCOc1snc(NS(=O)(=O)c2c[nH]c3cc(Cl)ccc23)c1Cl [Example 11, 6-chloro-N-(4-chloro-5-ethoxy-isothiazol-3-yl)-1H-indole-3-sulfonamide] | 54 |
| Cc1snc(NS(=O)(=O)c2c[nH]c3cc(Cl)ccc23)c1C#N [Example 15, 6-chloro-N-(4-cyano-5-methyl-isothiazol-3-yl)-1H-indole-3-sulfonamide] | 499 |
| COc1c(NS(=O)(=O)c2c[nH]c3cc(Cl)ccc23)nsc1C [Example 16, 6-chloro-N-(4-methoxy-5-methyl-isothiazol-3-yl)-1H-indole-3-sulfonamide] | 857 |
| Cc1onc(NS(=O)(=O)c2c[nH]c3cc(Cl)ccc23)c1C [Example 19, 6-chloro-N-(4,5-dimethylisoxazol-3-yl)-1H-indole-3-sulfonamide] | 550 |

Second part, the compound after the results:

| IC50 [nM] | Compound |
| --- | --- |
| 19 | CCCc1snc(NS(=O)(=O)c2c[nH]c3cc(Cl)ccc23)c1Cl [Example 1, 6-chloro-N-(4-chloro-5-propyl-isothiazol-3-yl)-1H-indole-3-sulfonamide] |
| 131 | O=S(=O)(Nc1nsc(C2CC2)c1Cl)c1c[nH]c2nc(Cl)ccc12 [Example 3, 6-chloro-N-(4-chloro-5-cyclopropyl-isothiazol-3-yl)-1H-pyrrolo[2,3-b]pyridine-3-sulfonamide] |
| 106 | Cc1snc(NS(=O)(=O)c2c[nH]c3cc(Cl)ccc23)c1Cl [Example 5, 6-chloro-N-(4-chloro-5-methyl-isothiazol-3-yl)-1H-indole-3-sulfonamide] |
| 216 | Cc1snc(NS(=O)(=O)c2c[nH]c3cc(Cl)ccc23)c1C [Example 6, 6-chloro-N-(4,5-dimethylisothiazol-3-yl)-1H-indole-3-sulfonamide] |
| 113 | COc1snc(NS(=O)(=O)c2c[nH]c3cc(Cl)ccc23)c1Cl [Example 10, 6-chloro-N-(4-chloro-5-methoxy-isothiazol-3-yl)-1H-indole-3-sulfonamide] |
| 74 | N#CCCc1snc(NS(=O)(=O)c2c[nH]c3cc(Cl)ccc23)c1Cl [Example 12, 6-chloro-N-[4-chloro-5-(2-cyanoethyl)isothiazol-3-yl]-1H-indole-3-sulfonamide] |
| 629 | Cc1cc(NS(=O)(=O)c2c[nH]c3cc(Cl)ccc23)ns1 [Example 13, 6-chloro-N-(5-methylisothiazol-3-yl)-1H-indole-3-sulfonamide] |
| 1110 | Cc1snc(NS(=O)(=O)c2c[nH]c3cc(Cl)ccc23)c1C1CC1 [Example 14, 6-chloro-N-(4-cyclopropyl-5-methyl-isothiazol-3-yl)-1H-indole-3-sulfonamide] |
| 78 | CCCc1snc(NS(=O)(=O)c2c[nH]c3cc(Cl)ccc23)c1OC [Example 17, 6-chloro-N-(4-methoxy-5-propyl-isothiazol-3-yl)-1H-indole-3-sulfonamide] |
| 815 | CCCc1onc(NS(=O)(=O)c2c[nH]c3cc(Cl)ccc23)c1C [Example 18, 6-chloro-N-(4-methyl-5-propyl-isoxazol-3-yl)-1H-indole-3-sulfonamide] |
| 404 | Cc1onc(NS(=O)(=O)c2c[nH]c3cc(Cl)ccc23)c1Cl [Example 20, 6-chloro-N-(4-chloro-5-methyl-isoxazol-3-yl)-1H-indole-3-sulfonamide] |
| 315 | Cc1onc(NS(=O)(=O)c2c[nH]c3cc(Cl)ccc23)c1Br [Example 21, N-(4-bromo-5-methyl-isoxazol-3-yl)-6-chloro-1H-indole-3-sulfonamide] |
